The values below come from ChEMBL document CHEMBL4330114 (Bioorg Med Chem, 2019).

Series [1] has as its system Human immunodeficiency virus 2. The series is described as follows: Antiviral activity against HIV2 ROD infected in human MT4 cells assessed as inhibition of virus-induced cytopathic effect after 5 days by MTT assay. Conditions: Human immunodeficiency virus 2, ISOLATE ROD, MT4, 120 h. For orientation: Cytopathic effects are the visible damage that an infection or toxin causes in cultured cells.

Series [2] concerns Human immunodeficiency virus 1. Briefly: Antiviral activity against HIV1 RES056 containing reverse transcriptase K103N + Y181C mutant infected in human MT4 cells assessed as inhibition of virus-induced cytopathic effect after 5 days by MTT assay. The class given is functional, organism-based. Conditions: Human immunodeficiency virus 1, RES056, MT4, 120 h.
Series [3] is described as follows: Selectivity index, ratio of CC50 for mock-infected human MT4 cells to EC50 for wild type HIV1 3B infected in human MT4 cells. The class given is toxicity, cell-based. Conditions: read-out: Selectivity Index.
Series [4] in a line: Selectivity index, ratio of CC50 for mock-infected human MT4 cells to EC50 for HIV1 RES056 RES056 containing reverse transcriptase K103N + Y181C mutant infected in human MT4 cells. The series is classed as toxicity, cell-based. Conditions: read-out: Selectivity Index.
The target in series [5] is Human immunodeficiency virus type 1 reverse transcriptase (Human immunodeficiency virus 1, UniProt Q72547). Briefly: Inhibition of recombinant wild type HIV1 reverse transcriptase assessed as reduction in biotin-dUTP incorporation using poly(A)/oligo(dT)15 as template/primer after 1 hr by ELISA.
Series [6] deals with Human immunodeficiency virus 1. Briefly: Antiviral activity against wild type HIV1 3B infected in human MT4 cells assessed as inhibition of virus-induced cytopathic effect after 5 days by MTT assay. The class given is functional, organism-based. As to conditions: Human immunodeficiency virus 1, 3B, MT4, 120 h.
Series [7] in a line: Selectivity index, ratio of CC50 for mock-infected human MT4 cells to EC50 for HIV2 ROD infected in human MT4 cells. As to conditions: read-out: Selectivity Index. The series is classed as toxicity, cell-based.
Series [8] is described as follows: Cytotoxicity against mock-infected human MT4 cells assessed as reduction in cell viability after 5 days by MTT assay. The series is classed as cell-based. Background: Tetrazolium dyes change colour on reduction, which living cells bring about.
Series [9] can be described thus: Aqueous solubility of the compound in phosphate buffer of pH 7.4 after overnight incubation by HPLC-UV analysis. The series is classed as physicochemical.
Series [10] is described as follows: Half life of the compound in phosphate buffer of pH 7.4 by HPLC-UV analysis. The series is classed as physicochemical.
Series [11] is described as follows: Half life of the compound in phosphate buffer of pH 2.0 by HPLC-UV analysis. The series is classed as physicochemical.
Series [12] in a line: Aqueous solubility of the compound in water at pH 7.0 after overnight incubation by HPLC-UV analysis. The series is classed as physicochemical.
Series [13] in a line: Aqueous solubility of the compound at phosphate buffer of pH 2.0 after overnight incubation by HPLC-UV analysis. The class given is physicochemical.
Series [14] deals with Human immunodeficiency virus 1. Briefly: Potency index, ratio of lamivudine EC50 to compound EC50 for antiviral activity against wild type HIV1 3B infected in human MT4 cells. The series is classed as functional.
Series [15] is described as follows: Solubility of the compound. The series is classed as physicochemical.

pEC50, pIC50: −log10 of the molar value. In brackets after ≈: the same amount, converted by molar mass.

As for `N#Cc1cc(Cl)cc(Oc2c(C(F)(F)F)ccn(CC(=O)Nc3ccn[nH]3)c2=O)c1`, the negative-log EC50 (pEC50) (usually −log10 of the EC50, conventionally taken in molar units) is 3.87 in series [1], less than 4.38 in [2] and 5.20 in series [6]. Also, the selectivity ratio in series [3] is no less than 7; in [4], 1; in series [7] it was 1. For the same compound, the pIC50 (commonly the negative decadic logarithm of the IC50, by convention in mol/L) in series [5] was 4.71. In addition, the CC50 (in general, the concentration at which the toxic effect on the cells reaches its halfway point) at 120 h in series [8] is no less than 41.9 µM.

For `N#Cc1cc(Cl)cc(Oc2c(C(F)(F)F)ccn(CC(=O)Nc3cn[nH]c3)c2=O)c1`, the pEC50 in [1] was no more than 4.48; in series [2], 6.46; in [6] it was 7.23. Besides, the results for the selectivity ratio in [3], in series [4] and in [7] were 775, 134 and no more than 1, respectively. The negative-log IC50 (pIC50) in series [5] was 5.90. Also, the CC50 at 120 h in [8] was 46.1 µM.

As to `N#Cc1cc(Cl)cc(Oc2c(C(F)(F)F)ccn(CC(=O)Nc3ccc(C(F)(F)F)cc3)c2=O)c1`, the negative logarithm of the EC50 (pEC50) in [1] is less than 4.08; in series [2] it was less than 4.08; in series [6] it was 4.91. Besides, the selectivity ratio is 7 in series [3], less than 1 in [4] and less than 1 in [7]. In series [5], the pIC50 is 4.52. The CC50 at 120 h in series [8] stood at 82.3 µM.

As for `Cn1c(Cn2ccc(C(F)(F)F)c(Oc3cc(Cl)cc(C#N)c3)c2=O)nn(COP(=O)(O)O)c1=O`, the values for the negative logarithm of the EC50 (pEC50) in series [1], in [2] and in series [6] were less than 3.63, less than 3.63 and 6.58, respectively. In addition, the figures for the solubility in [9], in series [12] and in series [13] were 5190 µg/mL (≈ 9680 µM), 4560 µg/mL (≈ 8510 µM) and 4220 µg/mL (≈ 7870 µM), respectively. In addition, the selectivity ratio in series [3] was greater than 893; in [4], 1; in series [7] it was 1. Further, the half-life in series [10] and in series [11] was greater than 24 h in each case. In addition, the pIC50 in [5] was 6.03. Besides, in series [8], the cytotoxic concentration (CC50) at 120 h is greater than 234 µM.

For the compound `N#Cc1cc(Cl)cc(Oc2c(C(F)(F)F)ccn(CC(=O)Nc3cnccn3)c2=O)c1`, the pEC50 is less than 3.74 in [1], less than 3.74 in [2] and 4.53 in series [6]. Further, the selectivity ratio in series [3] was no less than 6; in series [4], 1; in series [7], 1. For the same compound, the pIC50 in series [5] was 4.20. Further, the CC50 at 120 h in series [8] was no less than 183 µM.

As for `N#Cc1cc(Cl)cc(Oc2c(C(F)(F)F)ccn(CC(=O)Nc3ccncc3)c2=O)c1`, the pEC50 is less than 3.88 in series [1], less than 3.88 in series [2] and 4.49 in series [6]. Further, the selectivity ratio in [3] is 4; in series [4], less than 1; in [7], less than 1. In addition, the pIC50 in series [5] was 4.49. In addition, in series [8], the half-maximal cytotoxic concentration (CC50) at 120 h stood at 133 µM.

Regarding `N#Cc1cc(Cl)cc(Oc2c(C(F)(F)F)ccn(CC(=O)Nc3ncn[nH]3)c2=O)c1`, the figures for the negative logarithm of the EC50 (pEC50) in series [1], in [2] and in series [6] were 3.74, 6.71 and 7.26, respectively. Further, the “Ratio EC50” value in series [14] was determined as 234. The values for the selectivity ratio in series [3], in series [4] and in series [7] were greater than 5200, greater than 1450 and greater than 2, respectively. For the same compound, the pIC50 in [5] was 6.28. In addition, the CC50 at 120 h in series [8] is greater than 285 µM.

On to `N#Cc1cc(Cl)cc(Oc2c(C(F)(F)F)ccn(CC(=O)Nc3ccc([N+](=O)[O-])cc3)c2=O)c1`, for which the negative logarithm of the EC50 (pEC50) is 3.84 in series [1], less than 3.60 in [2] and 5.85 in series [6]. The selectivity ratio is greater than 181 in [3], 1 in series [4] and greater than 2 in [7]. The negative logarithm of the IC50 (pIC50) in series [5] is 5.90. Besides, the 50% cytotoxic concentration (CC50) at 120 h in series [8] is greater than 254 µM.

On to `O=C1Nc2ccc(Cl)cc2[C@@](C#CC2CC2)(C(F)(F)F)O1` [EFAVIRENZ], for which the negative-log EC50 (pEC50) in series [2] is 6.61; in [6], 8.15. Moreover, the CC50 at 120 h in series [8] was greater than 3.16 µM.

`Cn1c(Cn2ccc(C(F)(F)F)c(Oc3cc(Cl)cc(C#N)c3)c2=O)n[nH]c1=O` [DORAVIRINE]: the pEC50 in [1] is 3.85; in series [2] it was 7.82; in series [6], 7.89. The pIC50 in [5] was 7.72. The CC50 at 120 h in series [8] was greater than 294 µM.

As for `N#Cc1cc(Cl)cc(Oc2c(C(F)(F)F)ccn(CC(=O)Nc3ccc(Br)cc3)c2=O)c1`, the negative logarithm of the EC50 (pEC50) in series [1], in series [2] and in [6] was less than 4.06 throughout. In addition, the selectivity ratio in [3], in [4] and in series [7] was less than 1 in each case. Also, in series [5], the pIC50 was 4.03. Also, the CC50 at 120 h in series [8] came to 87.9 µM.

`N#Cc1cc(Cl)cc(Oc2c(C(F)(F)F)ccn(CC(=O)Nc3cccnc3)c2=O)c1`: the pEC50 in series [1], in [2] and in series [6] was less than 3.95 throughout. Besides, the selectivity ratio in [3], in series [4] and in series [7] was less than 1 each time. For the same compound, the pIC50 in [5] is 3.88. Moreover, the CC50 at 120 h in series [8] worked out at 111 µM.

On to `CS(=O)(=O)c1ccc(NC(=O)Cn2ccc(C(F)(F)F)c(Oc3cc(Cl)cc(C#N)c3)c2=O)cc1`, for which the pEC50 was less than 3.95 in series [1], less than 3.95 in series [2] and 4.38 in series [6]. Besides, the selectivity ratio is 3 in series [3], less than 1 in series [4] and less than 1 in [7]. The negative-log IC50 (pIC50) in series [5] was 6.00. For the same compound, the CC50 at 120 h in series [8] was 112 µM.

As to `N#Cc1cc(Cl)cc(Oc2c(C(F)(F)F)ccn(CC(=O)Nc3ccc(F)cc3)c2=O)c1`, the negative logarithm of the EC50 (pEC50) in series [1] was less than 3.57; in series [2] it was less than 3.57; in series [6], 3.73. Besides, the selectivity ratio in series [3] is greater than 1; in series [4], 1; in series [7], 1. Further, in [5], the negative logarithm of the IC50 (pIC50) is 4.14. For the same compound, the CC50 at 120 h in [8] is greater than 269 µM.

With `Nc1ccn([C@@H]2CS[C@H](CO)O2)c(=O)n1` [LAMIVUDINE], the values for the pEC50 in [1], in series [2] and in series [6] were no more than 4.77, 5.11 and 4.89, respectively. For the same compound, the results for the selectivity ratio in series [3] and in series [4] were greater than 7 and greater than 11, respectively. The cytotoxic concentration (CC50) at 120 h in [8] was greater than 87.3 µM.

For `Cc1cc(C#N)cc(C)c1Oc1nc(Nc2ccc(C#N)cc2)nc(N)c1Br` [ETRAVIRINE], the solubility (usually how much of the substance goes into solution per volume) in series [15] is less than 1 µg/mL.

As for `CC(C)OC(=O)OCn1nc(Cn2ccc(C(F)(F)F)c(Oc3cc(Cl)cc(C#N)c3)c2=O)n(C)c1=O`, the results for the pEC50 in series [1], in [2] and in [6] were 3.82, less than 3.64 and 5.91, respectively. Also, the solubility in series [9] was 29 µg/mL (≈ 53.5 µM); in [12], 27 µg/mL (≈ 49.8 µM); in series [13], 14 µg/mL (≈ 25.8 µM). The selectivity ratio in [3] is greater than 189; in series [4], 1; in [7], greater than 2. Moreover, in [5], the pIC50 is 5.68. Moreover, in [8], the CC50 at 120 h was greater than 231 µM.
